# Data published in publication PMC5570892, “Indole-based perenosins as highly potent HCl transporters and potential anti-cancer agents” (Scientific Reports, 2017).
# Several values for one entry are separate records, joined by “and”; a condition that tells them apart may be missing. Equal entries are not always repeated. Entries after “also recorded” stand apart in the source; their conditions may differ.
# Assay: Cl^−/NO3^− antiport assay by chloride ISE
# Type: biochemical
# Settings: 0.1 mol% loading
# Experimental: The chloride transport properties of the new perenosins 2–8 were compared to 1d using the chloride/nitrate exchange assay monitored by a chloride ion selective electrode (ISE). Typically, unilamellar vesicles were prepared from POPC, containing an intravesicular NaCl solution (489 mM with 5 mM phosphate buffer at pH 7.2) suspended in a NaNO3 solution (489 mM with 5 mM phosphate buffer at pH 7.2). All perenosins were added as a DMSO solution and the rate of chloride efflux was monitored by the chloride ISE. At the end of the experiment (300 s), detergent was added to lyse the vesicles and obtain the 100% chloride efflux reading. Dose response studies of 1d and 2–8 were performed to allow Hill analysis, giving the EC50 values and Hill coefficients as shown in Table 2.
# The external pH of cancer cells (pH 6.7[53]) is slightly acidic compared to healthy cells (pH 7.2–7.5[54]). […] To investigate the effect of pH on the chloride transport capabilities unilamellar vesicles were loaded with NaCl (489 mM) and suspended in NaNO3 (489 mM), and the internal and external solutions were buffered to pH 4.5, 6.5, 7.2 and 10 using various buffers (more detail can be found in the Supplementary Information). Compounds 1d and 2–8 were then tested in a single point screen at 0.1 mol% loading (Fig. 5). At pH 4.5 the perenosins exist predominantly as the active protonated species and so all compounds show moderate to high chloride transport properties, whereas, there is no chloride transport observed at pH 10 (see Supplementary Information for results).
# S10. Anion Transport Studies
# S10.1. General Procedure for the ISE Assay
# Unilamellar vesicles were prepared using previously reported literature procedures7-9. A lipid film of POPC (1-palmitoyl-2-oleoyl-sn-glycero-3-phosphocholine) or POPC:cholesterol (7:3 molar ratio) was prepared from a chloroform solution under reduced pressure and then dried under vacuum for 4 or more hours. The lipid film was rehydrated by vortexing with an internal solution of buffered metal chloride salt (usually 489 mM MCl). The lipid suspension was then subjected to 9 freeze-thaw cycles and left to rest at room temperature for 30 minutes. After this, the suspension was extruded 25 times through a 200 nm polycarbonate membrane resulting in unilamellar vesicles of a mean diameter of 200 nm. The large unilamellar vesicles were dialysed in the corresponding external solution for a minimum of 2 hours to remove any unencapsulated metal salts. The lipid solution obtained after dialysis was diluted to a standard volume (usually 10 mL) with the external buffered solution to obtain a lipid stock of known concentration.
# Internal and external solutions vary for each experiment and are detailed for each. Experiments conducted at different pHs required different buffers (citrate buffer for pH 4.5; phosphate buffer for pH 6.5 and pH 7.2; and ethanolamine buffer for pH 10) however, a constant buffer concentration (5 mM) and total ionic strength (500 mM) was maintained.
# The lipid stock was diluted with the external buffer solution to a standard volume (5 mL), to afford a solution with a lipid concentration of 1 mM. The compounds were added as a DMSO solution (10 μL) at the start of the experiment and the resulting chloride efflux was monitored using a chloride selective electrode over 5 minutes. After this time, detergent (50 μL of Triton X-100 (11 w%) in H2O:DMSO (7:1 v/v)) was added to lyse the vesicles and after 7 minutes a final chloride efflux reading was taken. This value represented 100 % chloride efflux and was used to calibrate the other […]
# Compared to pH 7.2, at pH 6.5 compounds 1d and 2-6 show increased transport ability with 2, 4 and 5 showing very similar, high transport capabilities and 1d, 3 and 6 not transporting to as great an […]
# S10.3. Cl-/NO3- ISE Assay - Hill Analysis
# The Cl-/NO3- exchange assay was performed as described above testing the compounds at varying […]
# carrier concentration (mol%, with respect to lipid). The data points were then fitted to the Hill […]
row,Compound,chloride efflux in POPC vesicles at pH 7.2 [%]
1,CCCCCc1cc2cc(C)cc(/N=C/c3[nH]c(C)cc3C)c2[nH]1 [Perenosin 2],100

# Same assay, conditions: 0.1 mol% loading, citrate buffer, within 5 minutes
row,Compound,chloride efflux at pH 4.5
1,CCCCCc1cc(/N=C/c2[nH]c3ccccc3c2C)c2[nH]ccc2c1 [Perenosin 7],inactive
2,CCCCCc1cc2cc(C)cc(/N=C/c3[nH]c4ccccc4c3C)c2[nH]1 [Perenosin 8],35%

# Same assay, conditions: 0.1 mol% loading, phosphate buffer, compared to pH 7.2
row,Compound,chloride transport at pH 6.5
1,CCCCCc1cc2cc(C)cc(/N=C/c3[nH]c(C)cc3C)c2[nH]1 [Perenosin 2],high
2,CCCc1cc2cc(C)cc(/N=C/c3[nH]c(C)cc3C)c2[nH]1 [Perenosin 4],high
3,CCCCCc1c(C)[nH]c(/C=N/c2cc(C)cc3cc[nH]c23)c1C [Perenosin 5],high
4,CCCCCc1cc(/N=C/c2[nH]c3ccccc3c2C)c2[nH]ccc2c1 [Perenosin 7],inactive
5,CCCCCc1cc2cc(C)cc(/N=C/c3[nH]c4ccccc4c3C)c2[nH]1 [Perenosin 8],inactive

# Same assay, conditions: Cl^−/NO3^− ISE assay, dose response
row,Compound,chloride transport at pH 7.2 (Hill analysis feasibility)
1,CCCCCc1cc2cc(C(F)(F)F)cc(/N=C/c3[nH]c(C)cc3C)c2[nH]1 [Perenosin 3],too weak to perform Hill analysis
2,CCCCCc1cc(/N=C/c2[nH]c3ccccc3c2C)c2[nH]ccc2c1 [Perenosin 7],too weak to perform Hill analysis; also recorded: weak transport activity
3,CCCCCc1cc2cc(C)cc(/N=C/c3[nH]c4ccccc4c3C)c2[nH]1 [Perenosin 8],too weak to perform Hill analysis; also recorded: weak transport activity

# Same assay, conditions: EC50 at 270 s, carrier:lipid molar percent, POPC vesicles
row,Compound,EC50 Cl^−/NO3^− at pH 7.2 (by ISE)
1,CCCCCc1cc(/N=C/c2[nH]c(C)cc2C)c2[nH]ccc2c1 [Perenosin 1d],0.122 mol% and 0.1220 mol%
2,CCCCCc1cc2cc(C)cc(/N=C/c3[nH]c(C)cc3C)c2[nH]1 [Perenosin 2],0.0043 mol%
3,CCCc1cc2cc(C)cc(/N=C/c3[nH]c(C)cc3C)c2[nH]1 [Perenosin 4],0.0111 mol%
4,CCCCCc1c(C)[nH]c(/C=N/c2cc(C)cc3cc[nH]c23)c1C [Perenosin 5],0.0227 mol%
5,CCCCCc1cc2cc(C)cc(/N=C/c3[nH]c(C)c(CCCCC)c3C)c2[nH]1 [Perenosin 6],0.0852 mol%

# Same assay, conditions: after 300 s, loading of 10 mol%, pH 7.2
row,Compound,maximum chloride efflux [%]
1,CCCCCc1cc2cc(C(F)(F)F)cc(/N=C/c3[nH]c(C)cc3C)c2[nH]1 [Perenosin 3],35

# Assay: pKa by UV spectrophotometric titration in aqueous solution
# Type: physicochemical
# Settings: apparent pKa, hexafluorophosphate buffered DMSO:water 50:50, 25 °C
# Text: The pK a at which protonation of the imine (N2, see Fig. 3) occurs gives an indication of the optimum pH for the binding of chloride anions. This is an important consideration in anti-cancer drug development as the external pH environment of cancer cells is mildly acidic (pH 6.7)[53] compared to that of healthy cells (pH 7.2–7.5)[54]. This can be exploited to selectively target cancer cells and potentially reduce the cytotoxic effects of perenosins when used as therapeutics for anti-cancer treatment. The apparent pK a values, shown in Table 1, for compounds 1d and 2–8 were determined both in aqueous solution (pK a (aq)) and in the presence of a 1-palmitoyl-2-oleoyl-sn-glycero-3-phosphocholine (POPC) lipid bilayer membrane (pK a (mem)). UV spectrophotometric titrations were conducted by varying the pH condition from neutral to acidic with the titration of either HPF6 or HCl.
# The apparent pK a values were derived from nonlinear curve fitting of the absorbance plotted against the pH; global fitting of both wavelengths corresponding to the neutral and protonated species were performed whenever feasible, see Supplementary Information for details.
# S6.1 pKa Studies in Aqueous Solution pKa values for compounds 1d, 2, 4, 5, 7 and 8 were determined experimentally in aqueous solution […]
# in absorbance bet ween the UV-Vis spectra of the protonated and the neutral species. The titration solution was made up with a hexafluorophosphate buffered (100 mM) DMSO:water 50:50 solution (4990 μL) and a transporter solution (10 μL, 25 mM), and the pH of this was recorded. The UV-Vis spectra were recorded on an Agilent Cary 100 UV-Vis spectrophotometer at 25 °C with baseline correction, using standard 10 mm quartz glass cells. A baseline absorbance was measured on a hexafluorophosphate buffered (100 mM) DMSO:water 50:50 solution, and then the absorbance of the titration solution was measured. The pH of the solution was decreased stepwise by adding small aliquots of hexafluorophosphoric acid ([…]). After each pH decrease an absorbance measurement was taken. The absorbance at a certain wavelength (noted for each compound below) was plotted against the pH and then fitted using a dose response curve in OriginPro 9.1, where the point of inflection corresponds to the apparent pKa in aqueous solution.
# Figure S38. Absorbance spectra taken over the course of a pH-spectrophotometric titration of 1d (25 mM) in a hexafluorophosphate buffered (100 mM) DMSO:water 50:50 mixture. Inset: Abs vs. pH with dose response curve fit and the point of inflection corresponding to the pKa value.
# (1 picture or pasted object on this page, not shown here)
row,Compound,pK a (aq)
1,CCCCCc1cc(/N=C/c2[nH]c(C)cc2C)c2[nH]ccc2c1 [Perenosin 1d],6.35
2,CCCCCc1cc2cc(C)cc(/N=C/c3[nH]c(C)cc3C)c2[nH]1 [Perenosin 2],6.08
3,CCCc1cc2cc(C)cc(/N=C/c3[nH]c(C)cc3C)c2[nH]1 [Perenosin 4],6.78
4,CCCCCc1c(C)[nH]c(/C=N/c2cc(C)cc3cc[nH]c23)c1C [Perenosin 5],6.44
5,CCCCCc1cc(/N=C/c2[nH]c3ccccc3c2C)c2[nH]ccc2c1 [Perenosin 7],5.51
6,CCCCCc1cc2cc(C)cc(/N=C/c3[nH]c4ccccc4c3C)c2[nH]1 [Perenosin 8],6.28

# Same assay, conditions: hexafluorophosphate buffered DMSO:water 50:50
row,Compound,solubility in the pKa titration solvent system
1,CCCCCc1cc2cc(C(F)(F)F)cc(/N=C/c3[nH]c(C)cc3C)c2[nH]1 [Perenosin 3],precipitation was observed
2,CCCCCc1cc2cc(C)cc(/N=C/c3[nH]c(C)c(CCCCC)c3C)c2[nH]1 [Perenosin 6],precipitation was observed
